Patent US7105572B2, “Stable emulsion compositions” (Takeda Pharmaceutical Company Limited, priority 2000, dated 2006)
One block for each compound: values may come before it.

Assays:
[1] = test system: NO production by RAW264.7 cell; experiment: NO production-inhibiting effect in RAW264.7 cells stimulated with LPS and interferon-gamma; assay type: cell-based, mouse; settings: LPS 5 ng/ml + interferon-gamma 1 U/ml, nitrite ion in culture supernatant, compounds 1 and 3: minimum and maximum of 7 and 9 tests
Method: Mouse macrophage cell line RAW264.7 was used as an iNOS-inducible cell and a test compound was examined for its % inhibition of NO production. The test compound was dissolved at the concentration of 10 mM in N,N-dimethylformamide and diluted with an RPMI-1640 medium at the concentration of 0.1 mM. The concentration was further adjusted using the medium, so that a final concentration ranging from 10 μM to 10 nM could be obtained by a 10-fold serial dilution, and the test compound was added to a culture medium. […] at 5×10^5/ml with 10% inactivated fetal calf serum in an RPMI-1640 medium and inoculated to a 96-well plate at 1×10^5 cells/0.2 ml per well. After incubating at 37° C. under an atmosphere of 5% CO2/95% air overnight, the test compound adjusted as described above was added and then LPS and interferon-gamma were added at the final concentrations of 5 ng/ml and 1 U/ml, respectively. […] The nitrite ion concentration was determined by adding 25 μl of 20 μg/ml of 2,3-diaminonaphthalene (DAN) to 50 μl of the culture supernatant, followed by incubating at room temperature for 10 minutes, followed by adding 25 μl of 0.5 N NaOH, followed by determining a fluorescence at 450 nm (excitation wavelength: 365 nm). […]

[2] = test system: nitric oxide concentration (NOx) in blood; experiment: Effect on increase of nitric oxide concentration (NOx) in blood of LPS-treated mice; assay type: in vivo, BALB/c mice; settings: 30 mg/kg orally, 1 hour before LPS 10 mg/kg i.p.; serum 6 hours after LPS; vs control group
IL-1β = experiment: Effect on increase of cytokine concentration in blood of LPS-treated mice: IL-1β; assay type: in vivo, BALB/c mice; settings: 30 mg/kg orally, 1 hour before LPS 10 mg/kg i.p.; serum 6 hours after LPS
Method: (§1) As a result of a defense mechanism against an infection and the like or an immune abnormality, various cytokines are produced in vivo. Accordingly, an experimental animal was used to examine the effect of a test compound on the increase cytokine concentration in blood.
(§2) Female BALB/c mice (6 weeks old) were purchased and acclimatized for 1 week and assigned to the groups in each of which 6 to 8 animals were included. In a treatment group, 30 mg/kg of a test compound suspended in a 0.5% aqueous methyl cellulose solution was given orally. In a control group, the vehicle was given similarly. After 1 hour, LPS (10 mg/kg) was given intraperitoneally to each animal in the treatment and control groups, and the blood was taken 1 hour after the LPS administration and examined for concentrations of TNF-α in the serum. IL-1α, IL-1β and IL-6 concentrations were determined using the serum from the blood taken 6 hours after the LPS administration. Each cytokine was determined using an assay kit manufactured by Amersham.

IL-1α = experiment: Effect on increase of cytokine concentration in blood of LPS-treated mice: IL-1α; assay type: in vivo, BALB/c mice; settings: 30 mg/kg orally, 1 hour before LPS 10 mg/kg i.p.; serum 6 hours after LPS
Method: as §1, §2

TNF-α = experiment: Effect on increase of cytokine concentration in blood of LPS-treated mice: TNF-α; assay type: in vivo, BALB/c mice; settings: 30 mg/kg orally, 1 hour before LPS 10 mg/kg i.p.; serum 1 hour after LPS
Method: as §1, §2

IL-6 = experiment: Effect on increase of cytokine concentration in blood of LPS-treated mice: IL-6; assay type: in vivo, BALB/c mice; settings: 30 mg/kg orally, 1 hour before LPS 10 mg/kg i.p.; serum 6 hours after LPS
Method: as §1, §2

IC50 ([1]; Mus musculus): 0.31 µM
Structure (SMILES): CCOC(=O)C1=CCCCC1S(=O)(=O)Nc1cccc(F)c1 (centres unmarked) [Compound 11, ethyl 6-[N-(3-fluorophenyl)sulfamoyl]-1-cyclohexene-1-carboxylate]

Structure (SMILES): CCOC(=O)C1=CCCCC1S(=O)(=O)Nc1ccc(F)cc1F (stereo not drawn) [Compound 20, d-ethyl 6-[N-(2,4-difluorophenyl)sulfamoyl]-1-cyclohexene-1-carboxylate]
IC50 [1]: 0.005 µM

Structure (SMILES): CCOC(=O)C1=CCCCC1S(=O)(=O)Nc1ccc(F)cc1F (centres unmarked) [Compound 3, ethyl 6-[N-(2,4-difluorophenyl)sulfamoyl]-1-cyclohexene-1-carboxylate]
NOx inhibition (%) in blood [2]: 90%

Structure (SMILES): CCOC(=O)C1=CCCCC1S(=O)(=O)Nc1ccc(Cl)cc1F (centres unmarked) [Compound 1, ethyl 6-[N-(4-chloro-2-fluorophenyl)sulfamoyl]-1-cyclohexene-1-carboxylate]
cytokine inhibition (%) in blood IL-1β (IL-1β): 73%
cytokine inhibition (%) in blood IL-1α (IL-1α): 97%
cytokine inhibition (%) in blood TNF-α (TNF-α): 98%
cytokine inhibition (%) in blood IL-6 (IL-6): 89%
NOx inhibition (%) in blood [2]: 76%
